According to article PMC7753147, “High-throughput determination of protein affinities using unmodified peptide libraries in nanomolar scale” (iScience, 2020):

What was measured:
FL-geph = experiment: µSPOT peptide microarray binding assay with full-length geph
native geph = experiment: µSPOT peptide microarray binding assay with native geph from mouse brain lysate
gephE = experiment: µSPOT peptide microarray binding assay with recombinant gephE
[1] = µSPOT peptide microarray, GlyRβ full positional scan, intensity normalised to wild-type sequence DLRSNDFSIVGSLPR (=1)
[2] = µSPOT peptide microarray, GlyRβ full positional scan, native geph from mouse brain lysate, intensity normalised to wild-type sequence DLRSNDFSIVGSLPR (=1)
[3] = µSPOT peptide microarray, GlyRβ full positional scan, recombinant gephE, intensity normalised to wild-type sequence DLRSNDFSIVGSLPR (=1)
[4] = µSPOT full positional scan of GlyRβ 15-mer DLRSNDFSIVGSLPR, intensity normalised to wild-type sequence (= 1)
[5] = µSPOT full positional scan of GlyRβ 15-mer DLRSNDFSIVGSLPR, native geph, intensity normalised to wild-type sequence (= 1)

Sequence | Fl-geph Binding Intensity [norm.] (FL-geph; [1]) | Native geph Binding Intensity [norm.] (native geph; [2]) | gephE Binding Intensity [norm.] (gephE; [3]) | Fl-geph Binding Intensity [norm.] (FL-geph; [4]) | Native geph Binding Intensity [norm.] (native geph; [5]) | gephE Binding Intensity [norm.] (gephE; [4])
DLRSPDFSIVGSLPR [GlyRβ_Full_Positional_Scan_085] | 0.85 | 0.86 | 0.95 | – | – | –
DLRSNDFSIVRSLPR [GlyRβ_Full_Positional_Scan_212, GlyR β 414-428 variant G424R] | – | – | – | 0.6 | 0.17 | 0.57
KLRSNDFSIVGSLPR [GlyRβ_Full_Positional_Scan_014] | 0.94 | 0.32 | 1.03 | – | – | –
DLRSNDFSIAGSLPR [GlyRβ_Full_Positional_Scan_181, GlyR β 414-428 variant V423A] | 0.65 | 0.47 | 0.51 | – | – | –
DRRSNDFSIVGSLPR [GlyRβ_Full_Positional_Scan_032] | 0.96 | 0.66 | 0.9 | – | – | –
DLRSNDFSIVGPLPR [GlyRβ_Full_Positional_Scan_225] | – | – | – | 0.7 | 0.25 | 0.51
RLRSNDFSIVGSLPR [GlyRβ_Full_Positional_Scan_012] | 0.99 | 0.46 | 0.98 | – | – | –
DLRINDFSIVGSLPR [GlyRβ_Full_Positional_Scan_063] | 0.91 | 1.05 | 0.92 | – | – | –
DLRSNDFSIVGSMPR [GlyRβ_Full_Positional_Scan_258] | – | – | – | 1.08 | 0.92 | 0.69
DLRSNDFVIVGSLPR [GlyRβ_Full_Positional_Scan_146, GlyR β 414-428 variant S421V] | 0.61 | 0.23 | 0.56 | – | – | –
DLRSNDFSIEGSLPR [GlyRβ_Full_Positional_Scan_191, GlyR β 414-428 variant V423E] | 0.69 | 0.53 | 0.58 | – | – | –
FLRSNDFSIVGSLPR [GlyRβ_Full_Positional_Scan_007] | 1.03 | 0.77 | 0.96 | – | – | –
DLRSNDFSRVGSLPR [GlyRβ_Full_Positional_Scan_172, GlyR β 414-428 variant I422R] | 0.62 | 0.16 | 0.57 | – | – | –
DLRSNDTSIVGSLPR [GlyRβ_Full_Positional_Scan_136, GlyR β 414-428 variant F420T] | 0.51 | 0.36 | 0.47 | – | – | –
DLRSNDFSIVGYLPR [GlyRβ_Full_Positional_Scan_229] | – | – | – | 0.59 | 0.31 | 0.53
DLRSNDFSIVGSAPR [GlyRβ_Full_Positional_Scan_241] | – | – | – | 1.07 | 1 | 0.9
DLRSNDFSIVGSLPR [GlyRβ_Full_Positional_Scan_235] | – | – | – | 1 | 1 | 1
DLRSNDFSIVGSLPM [GlyRβ_Full_Positional_Scan_298] | – | – | – | 1.34 | 1.42 | 0.9
DLTSNDFSIVGSLPR [GlyRβ_Full_Positional_Scan_056] | 1.18 | 1.38 | 0.96 | – | – | –

The remaining lines, values ahead:

Fl-geph Binding Intensity [norm.] (FL-geph; [1]) | Native geph Binding Intensity [norm.] (native geph; [2]) | gephE Binding Intensity [norm.] (gephE; [3]) | Fl-geph Binding Intensity [norm.] (FL-geph; [4]) | Native geph Binding Intensity [norm.] (native geph; [5]) | gephE Binding Intensity [norm.] (gephE; [4]) | Sequence
– | – | – | 0.92 | 0.5 | 0.72 | DLRSNDFSIVGSLSR [GlyRβ_Full_Positional_Scan_275]
1.06 | 1.25 | 0.97 | – | – | – | DLRRNDFSIVGSLPR [GlyRβ_Full_Positional_Scan_072]
– | – | – | 0.45 | 0.23 | 0.43 | DLRSNDFSIVCSLPR [GlyRβ_Full_Positional_Scan_217, GlyR β 414-428 variant G424C]
0.92 | 0.75 | 0.89 | – | – | – | DLRSNSFSIVGSLPR [GlyRβ_Full_Positional_Scan_115]
0.58 | 0.13 | 0.47 | – | – | – | DLRSNDFSKVGSLPR [GlyRβ_Full_Positional_Scan_174, GlyR β 414-428 variant I422K]
0.91 | 0.69 | 1.04 | – | – | – | SLRSNDFSIVGSLPR [GlyRβ_Full_Positional_Scan_015]
0.29 | 0.17 | 0.29 | – | – | – | DLRSNDFSDVGSLPR [GlyRβ_Full_Positional_Scan_170, GlyR β 414-428 variant I422D]
– | – | – | 1.01 | 0.21 | 0.58 | DLRSNDFSIVGSLKR [GlyRβ_Full_Positional_Scan_274]
0.83 | 0.72 | 0.84 | – | – | – | DLRSVDFSIVGSLPR [GlyRβ_Full_Positional_Scan_086]
– | – | – | 0.88 | 0.37 | 0.64 | DLRSNDFSIVGFLPR [GlyRβ_Full_Positional_Scan_227]
– | – | – | 1.08 | 0.55 | 0.62 | DLRSNDFSIVGSLHR [GlyRβ_Full_Positional_Scan_273]
0.79 | 0.2 | 0.47 | – | – | – | DLRSNDFEIVGSLPR [GlyRβ_Full_Positional_Scan_151, GlyR β 414-428 variant S421E]
0.82 | 0.6 | 0.8 | – | – | – | DWRSNDFSIVGSLPR [GlyRβ_Full_Positional_Scan_028]
0.84 | 0.73 | 0.95 | – | – | – | DYRSNDFSIVGSLPR [GlyRβ_Full_Positional_Scan_029]
0.98 | 1.18 | 0.96 | – | – | – | DNRSNDFSIVGSLPR [GlyRβ_Full_Positional_Scan_039]
1.07 | 0.65 | 1 | – | – | – | DLRSNGFSIVGSLPR [GlyRβ_Full_Positional_Scan_102]
0.64 | 0.71 | 0.89 | – | – | – | DLRPNDFSIVGSLPR [GlyRβ_Full_Positional_Scan_065]
0.62 | 0.27 | 0.68 | – | – | – | DLRSNDFSIWGSLPR [GlyRβ_Full_Positional_Scan_188, GlyR β 414-428 variant V423W]
– | – | – | 0.95 | 0.49 | 0.65 | DLRSNDFSIVGSLIR [GlyRβ_Full_Positional_Scan_263]
1.04 | 1.2 | 1.13 | – | – | – | MLRSNDFSIVGSLPR [GlyRβ_Full_Positional_Scan_018]
1.38 | 1.45 | 1.09 | – | – | – | DLDSNDFSIVGSLPR [GlyRβ_Full_Positional_Scan_050]
1.01 | 0.92 | 0.98 | – | – | – | DERSNDFSIVGSLPR [GlyRβ_Full_Positional_Scan_031]
0.66 | 0.43 | 0.48 | – | – | – | DLRSNDQSIVGSLPR [GlyRβ_Full_Positional_Scan_140, GlyR β 414-428 variant F420Q]
– | – | – | 0.87 | 0.88 | 0.85 | DLRSNDFSIVGSCPR [GlyRβ_Full_Positional_Scan_257]
1.39 | 1.3 | 1.03 | – | – | – | DLESNDFSIVGSLPR [GlyRβ_Full_Positional_Scan_051]
